Patent publication US8501400B2, “Methods and compositions for determining the pathogenic status of infectious agents” (priority 2007, dated 2013)

What was measured:
[1] = tested on: H37Rv cells; test: Sp6 SML-phage drug susceptibility test: SML generation (RT-PCR) in drug-treated Mtb; format: cell-based; conditions: 0.2 μg/ml INH, 2 μg/ml STR or 7.5 μg/ml EMB, Sp6 SML-phage MOI of 1 for 4 hr
[2] = tested on: H37Rv cells; test: Effect of mucolytic agents on phage infection and SML generation; format: cell-based, Mtb; conditions: equal volume of 0.5% NALC/2.9% NaCitrate or 200 mM TCEP/2.9% NaCitrate, one hour at 37° C., then SML-phage 4 hr; HiSalt conditions not given
[3] = 16 hr treatment at 37° C. with 2 μg/ml RIF
[4] = 40 hr treatment at 37° C. with 2 μg/ml RIF

| Compound | SML generation after drug treatment [1, 3] | SML generation after drug treatment [1, 4] | Effect on phage infection and SML generation [2] |
| --- | --- | --- | --- |
| CC[C@@H](CO)NCCN[C@@H](CC)CO [EMB, Ethambutol] | some detectable SML synthesis | completely abolished |  |
| CC(=O)N[C@@H](CS)C(=O)O [NALC, N-acetyl-L-cysteine] |  |  | no effect |
| NNC(=O)c1ccncc1 [INH, isoniazid] | some detectable SML synthesis | completely abolished |  |
| [H]/N=C(/N)N[C@H]1[C@H](O)[C@@H](O)[C@H](O[C@@H]2O[C@@H](C)[C@](O)(C=O)[C@H]2O[C@@H]2O[C@@H](CO)[C@H](O)[C@@H](O)[C@@H]2NC)[C@@H](N/C(N)=N\[H])[C@@H]1O [STR, Streptomycin] | no detectable SML | no detectable SML |  |
| O=C(O)CCP(CCC(=O)O)CCC(=O)O [TCEP, Tris-Carboxyethylphosphine] |  |  | completely abolishes SML generation |
